How the values were obtained:
[1] = tested on: rat having hypersensitive pain induced by anticancer agent (Oxaliplatin); test: Von Frey test in rat having hypersensitive pain induced by anticancer agent (Experimental Example 1); assay type: in vivo; conditions: SD rat, Oxaliplatin 5 mg/kg i.p. 5 days; oral once per day 28 days; L-serine 10.5 mg/kg, EPA 300 mg/kg equivalent; 22 and 28 days; stimulation intensity 4 g, 8 g, 15 g
Protocol: 6-Week-old male SD rats were divided into 5 groups (1A group-1E group, N=6) based on the body weight, an anticancer agent (Oxaliplatin 5 mg/body weight kg) was intraperitoneally administered to 4 groups other than 1A group for 5 days, and saline was intraperitoneally administered to 1A group for 5 days. In addition, the following evaluation liquid was orally ingested once per day in the time zone of 4 to 5 hours after start of the light period for 28 days simultaneously from the start of the intraperitoneal administration. As eicosapentaenoic acid administered to 1D group, 1E group, fish oil corresponding to 300 mg/body weight kg (equivalent to 429 mg/body weight kg as n-3 fatty acid) was used. Evaluation Liquids for 1A Group-1E Group: • 1A group: distilled water • 1B group: distilled water • 1C group: L-serine 10.5 mg/body weight kg • 1D group: eicosapentaenoic acid 300 mg/body weight kg equivalent • 1E group: L-serine 10.5 mg/body weight kg+eicosapentaenoic acid 300 mg/body weight kg equivalent Von Frey test was performed at 22 days and 28 days after the start of the anticancer agent administration. […] The ratio (%) of the number of pain response relative to the number (10 times) of filament pressing was calculated at each stimulation intensity.

[2] = tested on: rat having hypersensitive pain induced by gonitis inducing agent (Zymosan); test: Gastrocnemius weight of right and left foot in Zymosan gonitis rat (Experimental Example 2); assay type: in vivo; conditions: 21 days after Zymosan, rank among 2C-2E groups
Protocol: (§1) 8-Week-old male SD rats were divided into 5 groups (2A group-2E group, N=7) based on the body weight, and 2 mg of a gonitis inducing agent (Zymosan) was administered to the right knee cartilage part in 4 groups other than 2A group. In addition, the following evaluation liquid was orally ingested once per day in the time zone of 4 to 5 hours after start of the light period for 21 days from the administration of the gonitis inducing agent to the right knee. As eicosapentaenoic acid administered to 2D group, 2E group, fish oil corresponding to 300 mg/body weight kg (equivalent to 429 mg/body weight kg as n-3 fatty acid) was used.
(§2) Evaluation Liquids for 2A Group-2E Group: • 2A group: distilled water • 2B group: distilled water • 2C group: L-serine 10.5 mg/body weight kg • 2D group: eicosapentaenoic acid 300 mg/body weight kg equivalent • 2E group: L-serine 10.5 mg/body weight kg+eicosapentaenoic acid 300 mg/body weight kg equivalent
After the completion of ingestion of the evaluation liquid (21 days after gonitis inducing agent administration), rats were fasted for 17 hours, and the body weight, gastrocnemius weight of the right foot and the left foot, liver weight and weight of fat around epididymis of each group were measured.

[3] = tested on: peripheral neuropathic pain in an animal model of anticancer agent or diabetes; conditions: at the maximum concentration of L-serine; WO 2011/111355; cited from earlier work
[4] = tested on: rat having hypersensitive pain induced by gonitis inducing agent (Zymosan); test: Von Frey test in rat having hypersensitive pain induced by gonitis inducing agent (Zymosan) (Experimental Example 2); assay type: in vivo; conditions: SD rat, Zymosan 2 mg right knee; oral once per day; L-serine 10.5 mg/kg, EPA 300 mg/kg equivalent; 7 and 14 days; right and left foot; 4 g, 8 g, 15 g
Protocol: as §1, §2
Von Frey test was performed at 7 days and 14 days after the gonitis inducing agent administration. […] The ratio (%) of the number of pain response relative to the number (5 times) of filament pressing was calculated at each stimulation intensity.

SMILES: N[C@@H](CO)C(=O)O [L-serine]
- number of pain response (Von Frey test) as compared to 1B group [1]: slightly decreased
- gastrocnemius weight of the right foot, comparison in 2C group to 2E group ([2]; after 17 h fasting): lowest
- difference in the gastrocnemius weight of both feet, comparison among 2C group to 2E group [2]: largest
- relieving effect on peripheral neuropathic pain due to anticancer agents and diabetes [3]: partial
- number of pain response (Von Frey test) as compared to 2B group [4]: slightly decreased
